Measured values taken from patent publication US10538555B2, “Macrocyclic inhibitors of the PD-1/PD-L1 and CD80(B7-1)/PD-L1 protein/protein interactions” (BRISTOL-MYERS SQUIBB COMPANY, priority 2014, dated 2020).
Where two headings read alike, the source gives them in different places. *1 amine or outer side, *2 acyl side, *3 side chain or, on linkers, in order; H or OH if unused. Where a SMILES comes first, the peptide text is derived from it. Bridges are numbered along the chain shown (N, C = ends). [ ]: non-standard residue; d: D form. Trp(1-CH2COOH) = N[C@@H](Cc1cn(CC(=O)O)c2ccccc12)C(=O)O; Phe(3,4,5-F3) = N[C@@H](Cc1cc(F)c(F)c(F)c1)C(=O)O; Trp(7-Br) = N[C@@H](Cc1c[nH]c2c(Br)cccc12)C(=O)O; Phe(3,4-F2) = N[C@@H](Cc1ccc(F)c(F)c1)C(=O)O; NMePhe(4-F) = CN[C@@H](Cc1ccc(F)cc1)C(=O)O; d(cisHyp) = O=C(O)[C@H]1C[C@@H](O)CN1; Hyp = O=C(O)[C@@H]1C[C@@H](O)CN1; NMeF = CN[C@@H](Cc1ccccc1)C(=O)O; X1 = O=C([C@H]1COCCN1[*:1])[*:2]; dNMeF = CN[C@H](Cc1ccccc1)C(=O)O; dHyp = O=C(O)[C@H]1C[C@H](O)CN1; NMehSer = CN[C@@H](CCO)C(=O)O; NMeNle = CCCC[C@H](NC)C(=O)O; Pip = O=C(O)[C@@H]1CCCCN1; dPip = O=C(O)[C@H]1CCCCN1; NMeA = CN[C@@H](C)C(=O)O; Orn = NCCC[C@H](N)C(=O)O; Dab = NCC[C@H](N)C(=O)O; Dap = NC[C@H](N)C(=O)O

Molecular target: T1, Human PD-L1/PD-1 (Homo sapiens, UniProt Q9NZQ7)
T1 construct: TVMV protease cleavage site (C); made in house; host or cells: HEK293T cells
T1 sequence (Q9NZQ7 with tags, fused parts or gaps): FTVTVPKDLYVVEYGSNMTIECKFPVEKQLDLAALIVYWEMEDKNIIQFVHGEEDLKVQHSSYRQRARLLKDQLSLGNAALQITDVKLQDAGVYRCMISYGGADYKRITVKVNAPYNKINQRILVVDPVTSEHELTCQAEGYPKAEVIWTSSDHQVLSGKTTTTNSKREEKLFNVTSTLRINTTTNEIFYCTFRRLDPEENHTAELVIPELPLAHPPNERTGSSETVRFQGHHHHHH
Test: HTRF Human PD-L1/PD-1 binding assay (PD-1-Ig/PD-L1-His)
Details: PD-L1-His 10 nM, PD-1-Ig 20 nM
Procedure, shortened: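 Soluble HEK293T-expressed proteins: hPD-L1-His 10 nM, hPD-1-Ig 20 nM final. Cpd + PD-L1 15 min, + PD-1 15 min, + Eu anti-Ig 1 nM/APC anti-His 20 nM 30 min. Buffer dPBS, 0.1% BSA, 0.05% Tween-20. TR-FRET 665/620.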

[1] = class symbol, read-out: HTRF Human PD-L1/PD-1 Binding Assay IC50 Range
[2] = read-out: HTRF Human PD-L1/PD-1 Binding Assay IC50

CCCC[C@H]1C(=O)N2CCOC[C@@H]2C(=O)N[C@@H](CC(=O)O)C(=O)N[C@@H](C(C)C)C(=O)N(C)[C@@H](Cc2ccccc2)C(=O)N[C@@H](CCC(=O)O)C(=O)N2C[C@@H](O)C[C@@H]2C(=O)N[C@@H](Cc2c[nH]c3ccccc23)C(=O)N[C@@H](Cc2ccc(O)cc2)C(=O)N[C@@H](CCCN)C(=O)N[C@H](C(=O)NCC(N)=O)CSCC(=O)N[C@@H](Cc2cc(F)c(F)c(F)c2)C(=O)N(C)[C@@H](Cc2ccccc2)C(=O)N1C [Example 9280] ({CH2CO}-[Phe(3,4,5-F3)][NMeF][NMeNle][X1]DV[NMeF]E[dHyp]WY[Orn]CG-NH2; thioether N-13)
IC50 [1]: 10 to 99.9 nM

CCCC[C@H]1C(=O)N(C)[C@@H](CCCC)C(=O)N[C@@H](CC(C)C)C(=O)N[C@H](C(=O)NCC(N)=O)CSCC(=O)N[C@@H](Cc2ccc(O)cc2)C(=O)N(C)[C@@H](C)C(=O)N[C@@H](CC(N)=O)C(=O)N2CCC[C@H]2C(=O)N[C@@H](Cc2cnc[nH]2)C(=O)N[C@@H](CCC(N)=O)C(=O)N2C[C@H](O)C[C@H]2C(=O)N[C@@H](Cc2c[nH]c3ccccc23)C(=O)N[C@@H](CO)C(=O)N[C@@H](Cc2cn(CC(=O)O)c3ccccc23)C(=O)N1C [Example 6176] ({CH2CO}-Y[NMeA]NPHQ[Hyp]WS[Trp(1-CH2COOH)][NMeNle][NMeNle]LCG-NH2; thioether N-14)
IC50 [1]: 10 to 99.9 nM

CCCC[C@H]1C(=O)N(C)[C@@H](CCCC)C(=O)N[C@@H](CCCN)C(=O)N[C@H](C(=O)NCC(N)=O)CSCC(=O)N[C@@H](Cc2ccc(OC)cc2)C(=O)N(C)[C@@H](C)C(=O)N[C@@H](CC(=O)O)C(=O)N2CCC[C@H]2C(=O)N[C@@H](CN)C(=O)N[C@@H](CCCCN)C(=O)N2C[C@H](O)C[C@H]2C(=O)N[C@@H](Cc2c[nH]c3ccccc23)C(=O)N[C@@H](CCN)C(=O)N[C@@H](Cc2c[nH]c3ccccc23)C(=O)N1C [Example 7089] ({CH2CO}-Y(Me)[NMeA]DP[Dap]K[Hyp]W[Dab]W[NMeNle][NMeNle][Orn]CG-NH2; thioether N-14)
IC50 [1]: 1 to 9.9 nM

CCCC[C@H]1C(=O)N(C)[C@@H](CCCC)C(=O)NCC(=O)N[C@H](C(=O)NCC(N)=O)CSCC(=O)N[C@@H](Cc2ccc(O)cc2)C(=O)N(C)[C@@H](C)C(=O)N[C@@H](CC(N)=O)C(=O)N2CCC[C@H]2C(=O)N[C@@H](Cc2c[nH]cn2)C(=O)N[C@@H](CCC(N)=O)C(=O)N2C[C@H](O)C[C@H]2C(=O)N[C@@H](Cc2c[nH]c3ccccc23)C(=O)NCC(=O)N[C@@H](Cc2c[nH]c3ccccc23)C(=O)N1C [Example 5198] ({CH2CO}-Y[NMeA]NPHQ[Hyp]WGW[NMeNle][NMeNle]GCG-NH2; thioether N-14)
IC50 [1]: 10 to 99.9 nM

CCCC[C@H]1C(=O)N(C)CC(=O)N[C@@H](CC(=O)O)C(=O)NC(C(C)c2ccccc2)C(=O)N(C)[C@@H](Cc2ccccc2)C(=O)N[C@@H](Cc2ccc(O)cc2)C(=O)N(C)CC(=O)N[C@@H](Cc2c[nH]c3ccccc23)C(=O)N[C@@H](Cc2ccc(O)cc2)C(=O)N[C@@H](CC(C)C)C(=O)N[C@H](C(=O)NCC(N)=O)CSCC(=O)N[C@@H](Cc2ccccc2)C(=O)N(C)[C@@H](Cc2ccccc2)C(=O)N1C (single isomer, unassigned) [Example 3230-D]
IC50 [2]: 10000 nM

CCCC[C@H]1C(=O)N[C@@H](CC(C)C)C(=O)N[C@H](C(=O)NCC(N)=O)CSCC(=O)N[C@@H](Cc2ccc(O)cc2)C(=O)N(C)[C@@H](C)C(=O)N[C@@H](CCN)C(=O)N2CCC[C@H]2C(=O)N[C@@H](Cc2c[nH]cn2)C(=O)N[C@@H](CCC(=O)O)C(=O)N2C[C@H](O)C[C@H]2C(=O)N[C@@H](Cc2c[nH]c3ccccc23)C(=O)N[C@@H](CO)C(=O)N[C@@H](Cc2c[nH]c3ccccc23)C(=O)N(C)[C@@H](CCOC)C(=O)N1C [Example 10140] ({CH2CO}-Y[NMeA][Dab]PHE[Hyp]WSW[NMehSer](Me)[NMeNle]LCG-NH2; thioether N-14)
IC50 [1]: 10 to 99.9 nM

CCCC[C@H]1C(=O)N2C[C@H](O)C[C@@H]2C(=O)N[C@@H](CC(=O)O)C(=O)N[C@@H](C(C)C)C(=O)N(C)[C@H](Cc2ccccc2)C(=O)N[C@@H](CCC(N)=O)C(=O)N2C[C@H](O)C[C@@H]2C(=O)N[C@@H](Cc2c[nH]c3ccccc23)C(=O)N[C@@H](Cc2ccc(O)cc2)C(=O)N[C@@H](CCCN)C(=O)N[C@H](C(=O)NCC(N)=O)CSCC(=O)N[C@@H](Cc2ccc(F)c(F)c2)C(=O)N(C)[C@@H](Cc2ccccc2)C(=O)N1C [Example 9303] ({CH2CO}-[Phe(3,4-F2)][NMeF][NMeNle][d(cisHyp)]DV[dNMeF]Q[d(cisHyp)]WY[Orn]CG-NH2; thioether N-13)
IC50 [1]: 1 to 9.9 nM

CC(C)C[C@@H]1NC(=O)[C@H](Cc2ccc(O)cc2)NC(=O)[C@H](Cc2c[nH]c3ccccc23)NC(=O)[C@H]2CCCCN2C(=O)[C@H](CCC(=O)O)NC(=O)[C@H](Cc2ccccc2)N(C)C(=O)[C@H](C(C)C)NC(=O)[C@H](CC(=O)O)NC(=O)[C@H]2CCCN2C(=O)[C@H](Cc2ccccc2)N(C)C(=O)[C@H](Cc2ccc(F)cc2)N(C)C(=O)[C@H](Cc2cc(F)c(F)c(F)c2)NC(=O)CSC[C@@H](C(=O)NCC(N)=O)NC1=O [Example 10614] ({CH2CO}-[Phe(3,4,5-F3)][NMePhe(4-F)][NMeF][dP]DV[NMeF]E[dPip]WYLCG-NH2; thioether N-13)
IC50 [1]: 10 to 99.9 nM

CCCC[C@H]1C(=O)N(C)[C@@H](CCCC)C(=O)N[C@@H](CCC(=O)O)C(=O)N[C@H](C(=O)NCC(N)=O)CSCC(=O)N[C@@H](Cc2ccc(O)cc2)C(=O)N(C)[C@@H](C)C(=O)N[C@@H](CC(N)=O)C(=O)N2CCC[C@H]2C(=O)N[C@@H](CN)C(=O)N[C@@H](CC(C)C)C(=O)N2C[C@H](O)C[C@H]2C(=O)N[C@@H](Cc2c[nH]c3ccccc23)C(=O)N[C@@H](CCN)C(=O)N[C@@H](Cc2c[nH]c3ccccc23)C(=O)N1C [Example 5161] ({CH2CO}-Y[NMeA]NP[Dap]L[Hyp]W[Dab]W[NMeNle][NMeNle]ECG-NH2; thioether N-14)
IC50 [1]: 1 to 9.9 nM

CCCC[C@H]1C(=O)N(C)[C@@H](CCCC)C(=O)N[C@@H](CN)C(=O)N[C@H](C(=O)NCC(N)=O)CSCC(=O)N[C@@H](Cc2ccc(O)cc2)C(=O)N(C)[C@@H](C)C(=O)N[C@@H](CC(=O)O)C(=O)N2CCC[C@H]2C(=O)N[C@@H](CN)C(=O)N[C@@H](CCC(=O)O)C(=O)N2C[C@H](O)C[C@H]2C(=O)N[C@@H](Cc2c[nH]c3ccccc23)C(=O)N[C@@H](CCN)C(=O)N[C@@H](Cc2cn(CC(=O)O)c3ccccc23)C(=O)N1C [Example 5176] ({CH2CO}-Y[NMeA]DP[Dap]E[Hyp]W[Dab][Trp(1-CH2COOH)][NMeNle][NMeNle][Dap]CG-NH2; thioether N-14)
IC50 [1]: 1 to 9.9 nM

CCCC[C@H]1C(=O)N(C)[C@@H](CCCC)C(=O)N[C@@H](C)C(=O)N[C@H](C(=O)NCC(N)=O)CSCC(=O)N[C@@H](Cc2ccc(O)cc2)C(=O)N(C)[C@@H](C)C(=O)N[C@@H](CC(N)=O)C(=O)N2CCC[C@H]2C(=O)N[C@@H](Cc2cnc[nH]2)C(=O)N[C@@H](CCC(N)=O)C(=O)N2C[C@H](O)C[C@H]2C(=O)N[C@@H](Cc2c[nH]c3ccccc23)C(=O)N[C@@H](CO)C(=O)N[C@@H](Cc2c[nH]c3c(Br)cccc23)C(=O)N1C [Example 1541] ({CH2CO}-Y[NMeA]NPHQ[Hyp]WS[Trp(7-Br)][NMeNle][NMeNle]ACG-NH2; thioether N-14)
IC50 [2]: 451 nM

CCCC[C@H]1C(=O)N(C)[C@@H](CCCC)C(=O)N[C@@H](CCC(=O)O)C(=O)N[C@H](C(=O)NCC(N)=O)CSCC(=O)N[C@@H](Cc2ccc(OC)cc2)C(=O)N(C)[C@@H](C)C(=O)N[C@@H](CCN)C(=O)N2CCC[C@H]2C(=O)N[C@@H](CN)C(=O)N[C@@H](CCCCN)C(=O)N2C[C@H](O)C[C@H]2C(=O)N[C@@H](Cc2c[nH]c3ccccc23)C(=O)N[C@@H](CCN)C(=O)N[C@@H](Cc2c[nH]c3ccccc23)C(=O)N1C [Example 7123] ({CH2CO}-Y(Me)[NMeA][Dab]P[Dap]K[Hyp]W[Dab]W[NMeNle][NMeNle]ECG-NH2; thioether N-14)
IC50 [1]: 10 to 99.9 nM

CCCC[C@H]1C(=O)N(C)[C@@H](CCCC)C(=O)N[C@@H](CCC(=O)O)C(=O)N[C@H](C(=O)NCC(N)=O)CSCC(=O)N[C@@H](Cc2ccc(O)cc2)C(=O)N(C)[C@@H](C)C(=O)N[C@@H](CC(N)=O)C(=O)N2CCC[C@H]2C(=O)N[C@@H](Cc2c[nH]cn2)C(=O)N[C@@H](CCC(N)=O)C(=O)N2C[C@H](O)C[C@H]2C(=O)N[C@@H](Cc2c[nH]c3ccccc23)C(=O)N[C@@H](CCN)C(=O)N[C@@H](Cc2c[nH]c3ccccc23)C(=O)N1C [Example 5223] ({CH2CO}-Y[NMeA]NPHQ[Hyp]W[Dab]W[NMeNle][NMeNle]ECG-NH2; thioether N-14)
IC50 [1]: 1 to 9.9 nM

CCCC[C@H]1C(=O)N(C)[C@@H](CCCC)C(=O)N[C@@H](CCCNC(=N)N)C(=O)N[C@H](C(=O)NCC(N)=O)CSCC(=O)N[C@@H](Cc2ccc(O)cc2)C(=O)N(C)[C@@H](C)C(=O)N[C@@H](CC(=O)O)C(=O)N2CCC[C@H]2C(=O)N[C@@H](Cc2cnc[nH]2)C(=O)N[C@@H](CCCCN)C(=O)N2C[C@H](O)C[C@H]2C(=O)N[C@@H](Cc2c[nH]c3ccccc23)C(=O)N[C@@H](CCCCN)C(=O)N[C@@H](Cc2cn(CC(=O)O)c3ccccc23)C(=O)N1C [Example 6224] ({CH2CO}-Y[NMeA]DPHK[Hyp]WK[Trp(1-CH2COOH)][NMeNle][NMeNle]RCG-NH2; thioether N-14)
IC50 [1]: 10 to 99.9 nM

CCCC[C@H]1C(=O)N(C)[C@@H](CCCC)C(=O)N[C@@H](CCC(=O)O)C(=O)N[C@H](C(=O)NCC(N)=O)CSCC(=O)N[C@@H](Cc2ccc(O)cc2)C(=O)N2CCCC[C@H]2C(=O)N[C@@H](CC(N)=O)C(=O)N2CCC[C@H]2C(=O)N[C@@H](Cc2cnc[nH]2)C(=O)N[C@@H](CCCCN)C(=O)N2C[C@H](O)C[C@H]2C(=O)N[C@@H](Cc2c[nH]c3ccccc23)C(=O)N[C@@H](CCCCN)C(=O)N[C@@H](Cc2cn(CC(=O)O)c3ccccc23)C(=O)N1C [Example 1303] ({CH2CO}-Y[Pip]NPHK[Hyp]WK[Trp(1-CH2COOH)][NMeNle][NMeNle]ECG-NH2; thioether N-14)
IC50 [1]: 10 to 99.9 nM
